Results from patent US7956053B2, “Inhibitors of tyrosine kinases” (Novartis AG, priority 2002, dated 2011).

Tests used:
Type in all cases: biochemical
c-Abl = molecular target: T1, c-Abl (Homo sapiens, UniProt P00519); assay: Test for activity against c-Abl protein tyrosine kinase (filter binding assay)
T1 construct: The His-tagged kinase domain of c-Abl is cloned and expressed in the baculovirus/Sf9 system; His; made in house; host or cells: baculovirus/Sf9
T1 sequence (P00519 242-493 limits assumed): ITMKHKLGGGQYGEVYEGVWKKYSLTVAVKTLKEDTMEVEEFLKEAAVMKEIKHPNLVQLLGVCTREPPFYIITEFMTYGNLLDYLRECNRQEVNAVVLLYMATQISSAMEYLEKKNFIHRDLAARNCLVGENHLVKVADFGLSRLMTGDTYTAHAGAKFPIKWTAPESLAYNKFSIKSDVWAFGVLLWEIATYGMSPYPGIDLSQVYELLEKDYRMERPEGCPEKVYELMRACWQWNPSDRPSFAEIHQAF
How it was run: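 His-tagged c-Abl kinase domain expressed in baculovirus/Sf9 cells; 50 ng enzyme with 30 μg/mL poly-AEKY, 5 μM ATP plus [γ-33P]-ATP, pH 7.5 Tris, 1% DMSO. Stopped with EDTA, captured on PVDF membrane and counted by scintillation. Values are % inhibition at 10 μM.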

KDR = KDR (Homo sapiens, UniProt P35968); assay: Enzymatic KDR in vitro inhibition
KDR, sequence (P35968 20-1356): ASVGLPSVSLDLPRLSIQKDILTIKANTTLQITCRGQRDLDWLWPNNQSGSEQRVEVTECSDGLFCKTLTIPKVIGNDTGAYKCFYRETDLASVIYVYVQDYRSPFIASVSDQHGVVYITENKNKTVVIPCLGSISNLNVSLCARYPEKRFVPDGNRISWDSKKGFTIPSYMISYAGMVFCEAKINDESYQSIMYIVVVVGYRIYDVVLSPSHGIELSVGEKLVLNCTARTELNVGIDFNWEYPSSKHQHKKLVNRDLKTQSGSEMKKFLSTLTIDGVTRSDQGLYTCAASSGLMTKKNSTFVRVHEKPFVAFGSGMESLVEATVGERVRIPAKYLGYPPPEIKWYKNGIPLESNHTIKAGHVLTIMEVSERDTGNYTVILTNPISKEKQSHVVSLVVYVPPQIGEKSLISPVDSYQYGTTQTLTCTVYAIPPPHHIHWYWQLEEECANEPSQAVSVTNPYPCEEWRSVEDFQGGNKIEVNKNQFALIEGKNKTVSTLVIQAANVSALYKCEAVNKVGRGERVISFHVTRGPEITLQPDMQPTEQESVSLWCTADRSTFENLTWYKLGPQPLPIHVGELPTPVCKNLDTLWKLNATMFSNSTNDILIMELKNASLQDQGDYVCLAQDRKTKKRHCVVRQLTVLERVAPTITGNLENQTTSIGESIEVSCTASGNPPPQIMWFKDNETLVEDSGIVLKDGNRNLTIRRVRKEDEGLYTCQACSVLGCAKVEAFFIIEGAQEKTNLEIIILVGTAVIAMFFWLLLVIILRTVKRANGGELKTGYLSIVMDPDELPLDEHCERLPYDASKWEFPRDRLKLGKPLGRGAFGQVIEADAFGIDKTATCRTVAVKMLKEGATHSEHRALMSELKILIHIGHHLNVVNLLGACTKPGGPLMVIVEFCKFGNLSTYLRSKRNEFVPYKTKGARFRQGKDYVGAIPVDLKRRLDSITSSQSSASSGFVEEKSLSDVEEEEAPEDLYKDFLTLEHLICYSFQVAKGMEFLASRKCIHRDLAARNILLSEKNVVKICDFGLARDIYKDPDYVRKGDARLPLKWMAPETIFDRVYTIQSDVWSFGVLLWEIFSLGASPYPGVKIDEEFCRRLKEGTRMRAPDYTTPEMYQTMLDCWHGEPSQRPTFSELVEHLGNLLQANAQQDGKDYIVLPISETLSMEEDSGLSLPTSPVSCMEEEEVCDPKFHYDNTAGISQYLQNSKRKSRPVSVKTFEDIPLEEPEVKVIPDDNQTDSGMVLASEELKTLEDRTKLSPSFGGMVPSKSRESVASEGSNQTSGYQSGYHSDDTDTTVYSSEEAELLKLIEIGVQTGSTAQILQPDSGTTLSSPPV
How it was run: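 KDR kinase inhibition was measured in vitro with a radiometric filter-binding method. The kinase was incubated for 10 minutes at room temperature with poly(Glu,Tyr) 4:1 and 8 μM [^33P]-ATP (0.2 μCi) in 20 mM Tris.HCl pH 7.5 buffer with MnCl2, MgCl2, vanadate, PEG 20000, dithiothreitol and 1% DMSO. EDTA stopped the reaction, aliquots were spotted onto PVDF membranes, and after acid and ethanol washes radioactivity was counted. Results are given as % inhibition at 10 μM.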

Flt3 = molecular target: T2, Flt3 (Homo sapiens, UniProt P36888); assay: Enzymatic Flt3 in vitro inhibition; details: % inhibition at 10 μM
T2 sequence (P36888 27-993): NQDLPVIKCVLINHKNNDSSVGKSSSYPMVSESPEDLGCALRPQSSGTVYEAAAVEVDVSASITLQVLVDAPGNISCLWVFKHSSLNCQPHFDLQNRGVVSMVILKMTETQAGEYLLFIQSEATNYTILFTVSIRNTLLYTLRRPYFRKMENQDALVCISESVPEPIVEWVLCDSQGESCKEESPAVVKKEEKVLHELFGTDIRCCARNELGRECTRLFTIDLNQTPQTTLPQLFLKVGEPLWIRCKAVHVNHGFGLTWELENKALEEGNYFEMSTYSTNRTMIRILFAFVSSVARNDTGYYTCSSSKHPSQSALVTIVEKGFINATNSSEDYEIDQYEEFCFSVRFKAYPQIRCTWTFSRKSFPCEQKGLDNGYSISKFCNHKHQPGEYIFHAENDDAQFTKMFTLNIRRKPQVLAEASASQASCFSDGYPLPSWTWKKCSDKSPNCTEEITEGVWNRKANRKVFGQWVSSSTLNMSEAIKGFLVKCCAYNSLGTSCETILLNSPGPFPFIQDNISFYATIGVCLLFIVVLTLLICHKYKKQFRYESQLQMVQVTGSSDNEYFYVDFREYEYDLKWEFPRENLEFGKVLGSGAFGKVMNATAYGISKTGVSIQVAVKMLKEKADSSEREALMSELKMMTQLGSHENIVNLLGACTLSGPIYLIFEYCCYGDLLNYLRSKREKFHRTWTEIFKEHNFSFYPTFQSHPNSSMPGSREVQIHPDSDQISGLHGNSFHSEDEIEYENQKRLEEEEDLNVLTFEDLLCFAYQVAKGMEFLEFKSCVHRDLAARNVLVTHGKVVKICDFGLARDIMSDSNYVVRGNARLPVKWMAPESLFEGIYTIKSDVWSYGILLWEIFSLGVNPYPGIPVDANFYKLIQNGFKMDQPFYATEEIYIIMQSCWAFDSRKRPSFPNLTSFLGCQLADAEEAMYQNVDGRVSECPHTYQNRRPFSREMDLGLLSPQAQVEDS
Description: Enzymatic (c-Abl, KDR, Flt3) in vitro inhibition data are presented as % inhibition at 10 μM. The measurements are made as described above in the general description.

## CCN(CC)c1cccc(NC(=O)c2ccc(C)c(Nc3nccc(-c4cccnc4)n3)c2)c1 [Example 67, N-[3-(Diethylamino)phenyl]-4-methyl-3-[[4-(3-pyridinyl)-2-Pyrimidinyl]amino]benzamide]
c-Abl
  inhibition at 10 µM: 98%
KDR
  inhibition at 10 µM: 88%
Flt3
  Flt3 %@10 μM: 41%
